Experimental data as given in patent US20120034193A1, “TREATMENT OF NEUROTROPHIC FACTOR MEDIATED DISORDERS” (priority 2009, published 2012).

Tests used:
[1] = test system: rat primary cortical neurones; assay: Pre-treatment against glutamate-induced damage (LDH) in cortical neurones; format: cell-based; details: for Neuronal survival (% of control): 24 h before and 24 h after glutamate 100 μM 10 min; for Toxicity at the plateau of activity: nanomolar concentration, cortical neurones in vitro
Method: Exposure of rat primary cortical neurones to glutamate increases lactate dehydrogenase (LDH) activity measured 24 h after glutamate exposure, indicating significant neuronal damage. Rat cortical neurones were cultured by modification of a method previously described (Singer, et al., Neuroscience Letters, 1996, 212, pp. 13-16). On day 10 of culture, the medium was changed to a serum-free defined medium. On day 12, the cultures were washed and placed for 24 h in fresh medium containing test compound or vehicle (DMSO, 0.25%). On day 13 neurones were exposed to glutamate (100 μM; 10 min) at 37° C. The cultures were then washed with, and placed in, fresh medium supplemented with test compound or vehicle for a further 24 h before LDH was measured. Neuronal damage was assessed by measuring LDH activity in the media at 24 h after glutamate exposure.

[2] = test system: Rat dopaminergic neurones; assay: Pre-treatment against MPP+-induced loss of dopaminergic neurones; format: cell-based; details: 30 nM, 24 h before and during MPP+ 2 μM 48 h
Method: Rat dopaminergic neurones were cultured as previously described (Schinelli et al., Journal of Neurochemistry, 1988, 50, pp. 1900-1907). On day 5, the cultures were washed and placed in fresh medium containing test compounds (30 nM), vehicle (DMSO, 0.25%) or a combination of BDNF (1.85 nM) and GDNF (0.17 nM) for 24 h.
Exposure of rat primary dopaminergic neurones to MPP^+ (2 μM, 24 h) causes a significant decrease in the number of dopaminergic neurones compared to the control. On day 6, MPP^+ (2 μM) was added to the cultures in the presence of test compounds, vehicle or a combination of BDNF and GDNF for a further 48 h. MPP^+ induces neuronal death, via inhibition of complex I in the mitochondria and consequent ATP depletion, resulting in the production of free radicals and induction of apoptosis. After the incubation period, the cultures were fixed with paraformaldehyde in PBS (4%). After fixation, the neurones were permeabilised with Triton ×100 (0.05%) for 30 min. The neurones were then incubated with anti-tyrosine hydroxylase (TH) at 37° C. for 2 h. The neurones were washed three times with PBS, and then incubated with goat anti mouse/Cy3 for 2 h at 37° C. The neurones were mounted and examined with the fluorescence microscopy.

Rat cortical neurones = assay: Neuritogenesis in cortical neurones; format: cell-based; details: 3 nM, 24 h; for Neurones displaying neurites (%): control 39.35 ± 2.06
Method: Rat cortical neurones were cultured by modification of a previously described method (Singer, et al., Neuroscience Letters, 1996, 212, pp. 13-16). Cells were cultured with sarsasapogenin, smilagenin, vehicle (DMSO 0.25%), GDNF, BDNF or NGF for 24 h. For each group, 15 pictures showing neurones displaying neurites were selected at random in each field, and for each neurone the longest neurite was measured. The neurite number was measured by counting the number of neurones displaying neurites, the number of neurones not displaying neurites and the number of total neurones in each field. Six fields per well were examined.
The results are shown in Table 15 below, expressed as the number of neurones with neurites per field as a percentage of the total number of neurones per field.

Rat sensory neurones = assay: Neuronal survival in sensory neurones; format: cell-based, Wistar rat; details: 0.2 nM, 2 days
Method: Rat sensory neurones were obtained from Wistar rat embryos on the 15th day of gestation. Cells were cultured at 37° C. in 5% CO2/95% air atmosphere. Following 2 days of culturing with sarsasapogenin, smilagenin, vehicle (DMSO, 0.25%) or NGF, sensory neurones were rinsed twice with PBS and fixed in paraformaldehyde (4%) in PBS for 30 min at 4° C. Cells were permeabilised with Triton X-100 (0.1%) and non-specific sites were saturated using foetal bovine serum. Prior to staining, cells were incubated for 2 h at room temperature with a mixture of primary antibodies: anti-neurofilament 68 and 200 in PBS containing foetal bovine serum 5%. Prior to washing, slides were demounted and the cells were washed twice with PBS for 5 min, placed in a dark room for 1 h and incubated with a secondary antibody: anti-mouse coupled with cyanine 3 (Cy3; 1/1600) and an anti-rabbit coupled with fluoroisothiocyanate (FITC; 1/200) in PBS containing foetal bovine serum (5%). Slides were washed twice with PBS for 5 min and mounted on coverslips using Mowiol, an antioxidative solution (9% w/v) in glycerol (22%) buffered with Tris/HCl ([…]; pH 8.5). Slides were left overnight at room temperature to harden and stored in light protected conditions. Slides were viewed using a DAPI/FITC/Cy3 triple filter microscope with a ×20 objective. A series of photographs per well were taken at random using a digital camera.

pmn mice = details: literature (Sagot et al. 1996); cited from earlier work

With C[C@@H]1CC[C@@]2(OC1)O[C@H]1C[C@H]3[C@@H]4CC[C@@H]5C[C@H](O)CC[C@]5(C)[C@H]4CC[C@]3(C)[C@H]1[C@@H]2C [epismilagenin] the “Neuronal survival (% of control)” value ([1]; 3 nM) was 82.49 ± 3.93 % of control, the “Neuronal survival (% of control)” value ([1]; 10 nM) was 78.57 ± 2.15 % of control and the “Neuronal survival (% of control)” value ([1]; 30 nM) was 81.76 ± 2.09 % of control. The “Neuronal survival (% of control)” value ([1]; 100 nM) was 78.39 ± 1.75 % of control, the “Neuronal survival (% of control)” value ([1]; 300 nM) was 78.86 ± 1.80 % of control and the “Toxicity at the plateau of activity” value [1] was “without causing any toxicity”. For the same molecule, the “Neuronal survival (% of control)” value [2] was 115.12 ± 4.73 % of control.

In the case of NGF: nerve growth factor, the “Neurite length (% of control)” value (Rat cortical neurones) is reported as 145.73 ± 5.13 % of control, the “Neurones displaying neurites (%)” value (Rat cortical neurones) is reported as 52.59 ± 2.43 % and the “Neuronal survival (% of control)” value (Rat sensory neurones) is reported as 151.50 ± 7.19 % of control.

For C[C@H]1CC[C@@]2(OC1)O[C@H]1C[C@H]3[C@@H]4CC[C@@H]5C[C@H](O)CC[C@]5(C)[C@H]4CC[C@]3(C)[C@H]1[C@@H]2C [episarsasapogenin], the “Neuronal survival (% of control)” value ([1]; 1 nM) was 84.79 ± 2.40 % of control, the “Neuronal survival (% of control)” value ([1]; 3 nM) was 80.39 ± 5.18 % of control and the “Neuronal survival (% of control)” value ([1]; 10 nM) was 83.80 ± 4.18 % of control. The “Neuronal survival (% of control)” value ([1]; 30 nM) was 87.17 ± 2.51 % of control, the “Neuronal survival (% of control)” value ([1]; 100 nM) was 86.42 ± 2.95 % of control and the “Toxicity at the plateau of activity” value [1] was “without causing any toxicity”. The “Neuronal survival (% of control)” value [2] was 95.01 ± 4.52 % of control.

B1: GDNF: glial-derived neurotrophic factor (protein, UniProt P39905 78-211, looked up)
Glial cell line-derived …: SPDKQMAVLPRRERNRQAAAANPENSRGKGRRGQRGKNRGCVLTAIHLNVTDLGLGYETKEELIFRYCSGSCDAAETTYDKILKNLSRNRRLVSDKVGQACCRPIAFDDDLSFLDDNLVYHILRKHSAKRCGCI
In the case of B1, the “Neurite length (% of control)” value (Rat cortical neurones) is listed as 125.30 ± 4.18 % of control, the “Neurones displaying neurites (%)” value (Rat cortical neurones) is listed as 55.72 ± 1.98 % and the “Motor neurone survival and disease course in pmn mice” value (pmn mice) is listed as “improved the motor neurone survival but did not slow down the disease”.
